The results in this text go back to patent US10520508B2, “Predictive baseline biomarkers for use of vascular disrupting agents” (BIONOMICS LIMITED, priority 2014, dated 2019).

A short description of series [1]: Disruptor-1 trial: BNC105P in combination with everolimus, maximum tolerated dose. Type of series: in vivo, human (metastatic clear cell renal cell carcinoma patients). Conditions: intravenous infusion over 10 minutes, days 1 and 8 of 21 day cycle, with 10 mg oral everolimus daily. The text has this: The objective of the study was to determine the response rate of patients administered BNC105P (vascular disrupting agent) in combination with everolimus (mTOR inhibitor) in patients who had progressed from prior tyrosine kinase inhibitor therapy. In addition, the present inventors determined the improvement in 6-months progression free survival (PFS) with the addition of BNC105P to everolimus (Afinitor). A control group of patients received everolimus alone.
The medical histories of patients were obtained prior to commencement of the study.
Patients in the BNC105P in combination with everolimus study group (the “combination arm”) were administered 10 mg oral everolimus daily. On days 1 and 8 of the 21 day cycle period, the patients were administered 16 mg/m^2 BNC105P, which had been determined to be the maximum tolerated dose, by intravenous infusion over a 10 minute period (FIG. 1). Treatment was continued until disease progressed, intolerable toxicity became apparent, or until consent was withdrawn. A control group of patients were administered with everolimus alone.

The test system of series [2] is tumour endothelial cells (activated) and normal endothelial cells (quiescent). The experiment in a line: Potency against activated (tumour) versus quiescent (normal) endothelial cells. Conditions: activated vs quiescent endothelial cells. The format is cell-based.
For the next series, the system named is tubulin. The experiment in a line: Tubulin polymerisation inhibition. Type of series: biochemical.

On to `COc1cc(C(=O)c2c(C)oc3c(OP(=O)([O-])[O-])c(OC)ccc23)cc(OC)c1OC.[Na+].[Na+]` [BNC105P, disodium [6-methoxy-2-methyl-3-(3,4,5-trimethoxybenzoyl)-1-benzofuran-7-yl] phosphate], for which, in series [1], the maximum tolerated dose came to 16 mg/m^2.
`COc1ccc(/C=C\c2cc(OC)c(OC)c(OC)c2)cc1O` [Combretastatin A4, reference compound]: the “selectivity between activated (tumour) and quiescent (normal) endothelial cells” value in series [2] was “equally potent against quiescent and activated endothelial cells”.
`COc1cc(C(=O)c2c(C)oc3c(O)c(OC)ccc23)cc(OC)c1OC` [formula III, 2-methyl-7-hydroxy-3-(3,4,5-trimethoxybenzoyl)-6-methoxybenzofuran]: in the series on tubulin, the tubulin polymerisation inhibition entry is “potent tubulin polymerisation inhibitors”. For the same compound, in series [2], the “selectivity between activated (tumour) and quiescent (normal) endothelial cells” value is reported as “show selectivity towards tumor endothelial cells (activated) over normal endothelial cells (quiescent)”.
